Experimental data reported in patent US5585380A, “Modulation of cellular response to external stimuli” (priority 1995, dated 1996).

Columns and labels:
T cell proliferation = conditions: Singer et al., cited from earlier work
[1] = tested on: lyso-PA acyl transferase (LPAAT); test: Invention assay: HPLC of lipids from IL-1-stimulated mesangial cells, LPAAT; type: cell-based, human; conditions: compared with 0.5 mM; subsequent determinations
Experimental: (§1) This example also illustrates the method of the invention.
(§2) Human glomerular mesangial cells were incubated with IL-1 for various time periods of 5-60 seconds and the cells were fixed in ice-cold methanol, and the lipids extracted using chloroform:methanol 2:1 (v/v). It is very important that the fixing/extraction process be conducted quickly so that the decomposition of unstable intermediates is halted.
(§3) The extracts were subjected to HPLC on a Rainin mu-Porasil column with a 3:4 hexane:propanol organic carrier and a 1-10% water gradient during the first 10 minutes of separation. The relative concentration of each lipid species is determined using absorption at 206 nm (A206), which follows unsaturated acyl content of lipid species. […] The absolute mass of each lipid species is determined by lisolation of the lipid using a fraction collector, repurification on the HPLC column. Determination of phospholipid phosphorus is as nmoles/mg cellular protein. Protein concentration is determined using the Bradford technique.

[2] = tested on: IL-8 encoding mRNA in U937 and THP1 monocytic cell lines; test: Northern blot of IL-8 mRNA after lipopolysaccharide or GM-CSF; type: cell-based; conditions: induced by lipopolysaccharide or GM-CSF
Experimental: The murine fibrosarcoma cell line, L929, was also tested as an indicator for assays of TNF cytotoxicity. Cell growth was assayed by crystal violet staining using optical density as a measure of growth. […] Finally, two monocytic cell lines, U937 and THP1, were used to test the effect of pentoxifylline on the […] of the cytokine IL-8. The cell lines in culture were induced to upregulate IL-8 production by lipopolysaccharide or GM-CSF.

[3] = tested on: human leukemic cell line (Mo7e); test: GM-CSF-stimulated colony formation in semisolid medium; type: cell-based; conditions: rhGM-CSF; colonies counted after 10 days; FIG. 14
Experimental: The human leukemic cell line (Mo7e) is dependent on added granulocyte-macrophage colony-stimulating factor (GM-CSF) for growth. Mo7e cells were cultured in semisolid medium with and without pentoxifylline (PTX) and rhGM-CSF. Colonies were counted 10 days after culture initiation under an inverted microscope. […] PTX thus prevents the up-regulation of activation-associated genes which inhibit proliferation.

[4] = tested on: PA and DAG levels in human glomerular mesangial cells; test: Invention assay: HPLC of lipids from IL-1-stimulated mesangial cells; type: cell-based
Experimental: The compounds of Formula I are shown to modulate the effects of primary stimuli which elevate levels of the relevant subspecies of PA and DAG using the assay system of the invention. In general for the assay, the cells to be tested are first incubated with the primary stimulating agent for various time periods and fixed in ice-cold methanol. The lipids are extracted using, for example, chloroform:methanol 2:1 (v/v), and the extracts are then subjected to HPLC as described by Bursten and Harris, Biochemistry (1991)------. In this method, a Rainin mu-Porasil column is used with a 3:4 hexane:propanol organic carrier and a 1-10% water gradient during the first 10 minutes of separation. Detection of the peaks in the elution pattern is by absorption in the range of ultraviolet which detects isolated double bonds. Thus, the relevant peaks of unsaturated PA and DAG are shown in the elution pattern. It is important to note that the assay method permits discrimination between various forms of PA and DAG so that those relevant to the pathway affected by the compounds of Formula I can be measured directly. Confirmation of the nature of the acyl substituents of these components is accomplished using fast-atom bombardment mass spectroscopy. Thus, the relevant unsaturated (non-arachidonic) PA and DAG subspecies may be detected. The time periods employed are 5-60 seconds after stimulation with the primary stimulus, such as a cytokine. This technique permits assessment of the levels of various lipid components as a function of time.
To test the effect of the compounds of the invention, the candidate compound is included in the initial incubation at various concentrations. Fixing, extraction and HPLC are conducted as above. The effect of the candidate compound is then reflected in a lowering of the relevant PA and DAG levels as compared to the cells without candidate in the control as illustrated hereinbelow.
as §2
as §3, with “Determination of phospholipid phosphorus is as nmoles/mg cellular protein.” left out, “technique. […]” for “technique.”

TNFα = conditions: Singer et al.; cited from earlier work
[5] = tested on: SV40 T-antigen-transformed human kidney mesangial cells; test: Tritiated thymidine uptake of transformed mesangial cells with rhIL-1 or TNFα; type: cell-based
Experimental: SV40 T-antigen-transformed human kidney mesangial cells were cultured under standard conditions with rhIL-1 or with TNFα with and without pentoxifylline (PTX). Transformed mesangial cells grow independently of added growth factors, but IL-1 and TNFα are the normal proliferative signals for mesangial cells. As was shown in Example 1, when IL-1 is added to kidney mesangial cells, within 30 seconds LPAAT and PAPH are activated; the effect of both of these enzymes is inhibited by pentoxifylline at 1 mM. In this experiment, the growth of the treated cells was measured using tritiated thymidine uptake.

CD3-positive lymphocytes = test: Proliferation of anti-CD3-stimulated CD2-positive cells (thymidine uptake); type: cell-based; conditions: CD2-positive T-cells, adsorbed monoclonal antibody 64.1, harvested after 5 days; IL-1 or TNF failed to reverse; FIG. 21
Experimental: In these experiments, freshly isolated, CD2-positive cells were stimulated by a solid-phase monoclonal antibody to acquire a CD3 phenotype, and then PTX was added. […] The block in proliferation could not be overcome by addition of either tumor necrosis factor (FIGS. 20 and 21) or IL-1 (FIG. 21). […] The cytokines and PTX were added at culture inception and the cells were harvested after 5 days.

[6] = tested on: TNFα transcripts in U937 cells; test: Northern blot of TNFα transcripts after LPS induction; type: cell-based; conditions: 1 mM PTX; LPS three hours; FIG. 15
[7] = tested on: IL-6 transcripts in bone marrow stromal cells; test: Northern blot of IL-6 transcripts; type: cell-based; conditions: three-hour exposure, increasing concentrations; FIG. 16
[8] = tested on: TNF, IL-2 and IL-2 receptor transcripts in CD3 positive lymphocytes; test: Northern blots of CD3 positive lymphocytes in a mixed lymphocyte reaction; type: cell-based
[9] = tested on: NIH3T3 murine fibroblast cells transformed with a mutated K-ras; test: Growth and soft agar colonies of K-ras transformed NIH3T3 cells in vitro; type: cell-based; conditions: concentrations at or greater than 0.5 mM
Experimental: Additionally, NIH3T3 murine fibroblast cells transformed with a mutated K-ras (codon 12 Gly-Val) were tested in vitro and in nude mice.

[10] = tested on: Steel factor transcripts in marrow stromal cell lines; test: Northern blot of Steel factor transcripts; type: cell-based; conditions: three-hour incubation; passaged or cloned (CDCL) marrow stromal cell lines; FIGS. 17 and 18
[11] = tested on: NIH3T3 cell line (D5C3) transformed with temperature-sensitive v-abl mutant gene; test: Blocking transformed phenotype of D5C3 cells; type: cell-based, murine; conditions: 1 mM pentoxifylline; 33° C., 5 days
Experimental: An NIH3T3 cell line ([MUT]) provides target cells which were transformed by an activated oncogene. The cells were transformed with a temperature-sensitive v-abl mutant gene. This mutant gene encodes a temperature-sensitive v-abl protein that produces a non-oncogenic product at a non-permissive temperature due to a lack of tyrosine phosphorylation. The cells were incubated at the permissive temperature (33° C.) for 5 days after passage with and without pentoxifylline (1 mM).

[12] = tested on: phosphatidic acid phosphohydrolase (PAPH); test: Invention assay: HPLC of lipids from IL-1-stimulated mesangial cells, PAPH; type: cell-based, human; conditions: 0.5 mM; subsequent determinations
Experimental: as §1, §2, §3

[13] = tested on: HLA-DR, CD71, CD25 and CD69 on MLR-stimulated lymphocytes; conditions: Singer et al.; cited from earlier work

CC(=O)CCCCn1c(=O)c2c(ncn2C)n(C)c1=O [Pentoxifylline]
proliferative response in a mixed lymphocyte culture (T cell proliferation; PTX added after triggering lymphocytes): still effective in blocking a proliferative response
proliferation of lymphocytes induced by anti-CD3 (T cell proliferation; exogenous recombinant TNF or IL-1 did not reverse): suppressed proliferation
inhibitory effect on LPAAT [1]: evident only at higher concentrations
synthesis of IL-8 (mRNA) [2]: did not inhibit, and indeed may upregulate
GM-CSF-stimulated growth of colonies [3]: enhanced GM-CSF-stimulated growth of colonies
cyclical formation of PA and conversion of PA to DAG (HPLC) ([4]; 100 μM pentoxifylline, 10^-11 M IL-1, 15- and 60-second points): no change
conversion of PA to DAG (HPLC) ([4]; 500 μM pentoxifylline, IL-1, 15 second time point): slight attenuation
elevation of PA and DAG by IL-1 (HPLC) ([4]; 1 mM PTX, all time points (15-60 seconds)): abolishes the elevation of PA and DAG
effect on secretion of TNFα versus TNF transcription (TNFα): greater effect on secretion of TNFα
proliferative effect of TNF (thymidine uptake) ([5]; TNFα, FIG. 13B): enhances the proliferative effect of TNF
growth stimulated by IL-1 (thymidine uptake) ([5]; rhIL-1, FIG. 13A): arrested growth
thymidine uptake (CD3-positive lymphocytes): diminished by PTX in an concentration-dependent manner
TNF RNA in response to LPS stimulation [6]: undetectable level
production of IL-6 transcripts [7]: increased production of IL-6 transcripts
TNF transcripts ([8]; FIG. 19A): suppression
IL-2 receptor transcripts ([8]; FIG. 19C): suppression
anchorage-independent growth in soft agar [9]: suppression of anchorage-independent growth
growth in vitro [9]: inhibition of growth
levels of Steel factor transcripts [10]: increases
appearance of cells [11]: predominantly non-transformed, fibroblastic appearance
inhibition of PAPH [12]: inhibits PAPH
expression of cell surface antigens HLA-DR, CD71, CD25, CD69 [13]: decreased expression
